Assay results published in patent US12319655B2, “RAF kinase inhibitors and methods of use thereof” (Deciphera Pharmaceuticals, LLC, priority 2021, dated 2025).

Experiments:
Miapaca-2 cells [1] = assay: MiaPaca-2 Combination Cell proliferation Assay (1) with cobimetinib; format: cell-based; details: MiaPaca-2 cell proliferation, read-out: MiaPaca-2 Combo (1) IC50
Experimental: MiaPaca-2 Combination Cell proliferation Assay (1)
Miapaca-2 cells (catalog #CRL-1420) are obtained from the American Type Culture Collect (ATCC, Manassas, VA). Briefly, cells were grown in DMEM supplemented with 10% characterized fetal bovine serum (Invitrogen, Carlsbad, CA), 2.5% New Zealand sourced horse serum and 1% Penicillin/Streptomycin/L-Glutamine at 37° C., 5% CO2, and 95% humidity. Cells are expanded until reaching 70-95% confluency at which point they are subcultured or harvested for assay use. A serial dilution of test compound was dispensed into multiple 96-well black clear bottom plates in triplicate. A serial dilution of complete growth medium containing cobimetinib was prepared at twice the final concentration and 100 μL was dispensed across the test compound titration in triplicate. Three thousand cells are added per well in 100 μL complete growth medium in each 96-well plate. Plates are incubated for 67-72 hours at 37° C., 5% CO2, and 95% humidity. At the end of the incubation, 40 μL of a 440 μM solution of resazurin (Sigma, St. Louis, MO) in PBS is added to each well of the plate and plates are incubated for an additional 5-7 hours at 37° C., 5% CO2, and 95% humidity. Plates are read on a Synergy2 or equivalent reader (Biotek, Winooski VT) using an excitation of 540 nm and an emission of 600 nm. Drug synergy was assessed via BLISS analysis in the Combenefit software (Cancer Research UK Cambridge Institute, Cambridge, UK). Data is analyzed using Prism software (Graphpad, San Diego, CA) to calculate IC50 values. Shifts in test compound IC50 values are reported from top-constrained combination therapy curves.

[2] = target: A-Raf kinase (SEQ. ID No: 1) (Homo sapiens (Human), UniProt P10398, Y301D/Y302D); assay: Biochemical Assay for A-Raf (1); details: Table J, assay version (1); read-out: ARAF (1) IC50
Sequence of A-Raf kinase (SEQ. ID No: 1) (P10398 other isoform, or with tags, fused parts or gaps Y301D (already in the parent)/Y302D (already in the parent)): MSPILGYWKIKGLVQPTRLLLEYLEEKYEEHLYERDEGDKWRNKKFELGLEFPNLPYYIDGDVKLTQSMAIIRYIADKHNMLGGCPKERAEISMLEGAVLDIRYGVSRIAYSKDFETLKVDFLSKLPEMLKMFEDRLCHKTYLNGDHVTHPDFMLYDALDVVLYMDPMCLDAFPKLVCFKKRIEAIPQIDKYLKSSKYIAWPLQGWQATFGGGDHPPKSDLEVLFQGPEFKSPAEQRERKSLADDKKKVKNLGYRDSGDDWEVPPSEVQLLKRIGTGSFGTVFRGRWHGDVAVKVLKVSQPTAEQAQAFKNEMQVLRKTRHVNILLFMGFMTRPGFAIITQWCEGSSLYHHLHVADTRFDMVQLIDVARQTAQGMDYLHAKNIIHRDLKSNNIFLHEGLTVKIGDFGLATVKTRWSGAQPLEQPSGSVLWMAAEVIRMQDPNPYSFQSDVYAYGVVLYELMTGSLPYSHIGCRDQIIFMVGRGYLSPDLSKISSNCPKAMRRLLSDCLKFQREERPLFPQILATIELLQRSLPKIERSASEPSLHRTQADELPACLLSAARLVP
Procedure, shortened: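 A-Raf Y301D/Y302D at 5.55 nM phosphorylates 30.1 nM MEK with 1 mM ATP in pH 7.5 Tris buffer, 1% DMSO. Activity was read continuously as NADH oxidation at 340 nm in a pyruvate kinase/lactate dehydrogenase coupled system for 6 h at 30 °C. Rates from 4–5 h were converted to percent inhibition, and IC50 came from a four-parameter fit.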

[3] = target: B-Raf kinase (SEQ. ID NO: 2) (Homo sapiens (Human), UniProt P15056); assay: Biochemical Assay for B-Raf (1); details: Table J, assay version (1); read-out: BRAF (1) IC50
Sequence of B-Raf kinase (SEQ. ID NO: 2) (P15056 416-766): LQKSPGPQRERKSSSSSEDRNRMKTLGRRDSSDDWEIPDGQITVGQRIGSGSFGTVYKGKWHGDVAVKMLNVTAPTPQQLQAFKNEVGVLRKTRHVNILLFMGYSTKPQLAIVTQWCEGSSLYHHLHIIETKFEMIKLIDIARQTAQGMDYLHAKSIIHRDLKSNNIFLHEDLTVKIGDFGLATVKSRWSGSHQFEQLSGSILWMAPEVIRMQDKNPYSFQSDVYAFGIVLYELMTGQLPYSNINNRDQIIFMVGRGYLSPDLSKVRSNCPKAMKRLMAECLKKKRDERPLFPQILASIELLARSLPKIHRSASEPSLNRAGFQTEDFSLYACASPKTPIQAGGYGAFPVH
Procedure, shortened: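 Continuous PK/LDH-coupled NADH oxidation assay, A340 read for 6 h at 30° C., with 0.13 nM B-Raf, 30.1 nM MEK substrate and 1 mM ATP in Tris pH 7.5, MgCl2, DTT, detergents, 1% DMSO. Rate taken from 4–5 h window; percent inhibition vs no-compound and known-inhibitor controls; four-parameter fit gives IC50.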

Miapaca-2 cells [4] = assay: MiaPaca-2 Cell Proliferation Assay (1); format: cell-based; details: Homo sapiens, MIA PaCa-2, single agent, read-out: MiaPaca2 (1) IC50
Procedure, shortened: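 Resazurin was added after compound exposure and incubated 5-6 h, then fluorescence read at 540 nm excitation and 600 nm emission to give IC50.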

Cc1ccc(NC(=O)c2ccnc(C3CC3)c2)cc1-c1cncc(-c2ccnc(NC(=O)C3CC3)c2)n1 [Example 184]
IC50 (Miapaca-2 cells [1]): ≤ 100 nM
IC50 [2]: 100 to 500 nM
IC50 [3]: ≤ 100 nM
IC50 (Miapaca-2 cells [4]): 1000 to 10000 nM
